Data set [1] is described as follows: ORAC assay (oxygen radical absorbance capacity, ORAC-FL). To be noted: radical scavenging against peroxyl radicals; mean ± SD of three experiments. How it is done:
The radical-scavenging activities of the hydroquinone series against peroxyl radicals were assessed (ORAC assays). […] Similarly, for the series with the gem-diethyl group on ring B (compounds 6–10), compound 6 presents the highest antioxidant capacity (7.0 + 0.3 mol TE/mol compound). […] The replacement of the gem-dimethyl with the gem-diethyl group also decreases the antioxidant capacity.
The antioxidant activity was determined by ORAC (oxygen radical absorbance capacity) assays. Briefly, the antioxidant capacity for ORAC-FL was estimated by measuring the changes in fluorescence after 120 min of reaction with the radical. Assays were performed using a 96-well microplate in a Synergy H1 hybrid multi-mode microplate reader (Biotek, Winooski, VT, USA), and the results were expressed as µmol Trolox 100 g^−1 DW. Three replicates were accomplished for each analysis.

For another data set, the target named is α-glucosidase. The data set can be described thus: α-glucosidase inhibitory activity (p-nitrophenyl α-D-glucopyranoside substrate). It counts as biochemical.
In data set [2] the test system is Caco-2 cells. The data set can be described thus: MTT assay, cell proliferation. It counts as cell-based, human. To be noted: Caco-2, 24 h treatment, 1-100 µM (Figure 3A). How it is done: We evaluate the effect of ortho-carbonyl hydroquinones 1–10 on the intestinal Caco-2 cell line at 24 h of treatment.
Caco-2 cells were grown in Dulbecco’s modified Eagle’s Medium/Nutrient Mixture F-12 (D-MEM/F-12), supplemented with 5% fetal bovine serum (FBS), penicillin (100 IU/mL), streptomycin (100 μg/mL), and nonessential amino acid solution 1% (GIBCO, Thermo Fisher Scientific, Grand Island). The culture media contained no exogenous pyruvate supplementation, and the cells were maintained in a humidified atmosphere at 37 °C and 5% CO2.
The cell proliferation was determined using the MTT assay. The cells were incubated in 96-well plates at 7000 cells per well and incubated for 24 h. The cells were treated for 24 h with compounds (1, 5, 10, 30, 50, and 100 μM). After treatment, the culture medium was removed, and the cells were incubated with MTT for 1 h at 37 °C. Finally, 100 μL of DMSO was added and measured by spectrophotometry at 570 nm, as previously described.

Data set [3] has as its system Caco-2 cells. Briefly: Extracellular acidification rate and oxygen consumption rate in real time (Seahorse XFe96). To be noted: Caco-2, 100 µM. It counts as cell-based, human. How it is done: We previously described how ortho-carbonyl hydroquinone scaffolds inhibit oxidative phosphorylation in breast cancer cells. Since the reduction in glucose utilization and metabolism in intestinal cells is a promising target for T2DM treatment, the effect of these compounds on mitochondrial respiration and glycolysis in Caco-2 cells was determined. […] The effect of ortho-carbonyl hydroquinone series (100 µM) on five parameters of mitochondrial respiration (basal OCR, max OCR, spare capacity, ATP-linked OCR, and proton leak-driven OCR), and two of glycolysis (glycolytic capacity and glycolysis), is represented in a dendrogram (Figure 3C). […] OCR: compounds 1, 6, 7, and 9. […] No correlations between OCR and ECAR parameters, α-glucosidase activity inhibition, or ORAC were observed (Supplementary Figure S1).
In contrast, compound 10 increases the proton leak-OCR and decreases max OCR (Figure 4A–D).
To analyze the extracellular acidification rate (ECAR), Caco-2 cells (10,000 cells/well) were seeded on XFe96 V3-PS multi-well plates and kept for 24 h at 37 °C in 5% CO2 with a DMEM culture medium supplemented with FBS. After 24 h, the cells were stimulated by compounds at 100 μM for 24 h. Then, the culture medium was replaced with assay media (unbuffered DMEM without red phenol, with 4 mM glutamine and 10 mM glucose, pH = 7.4) 1 h before the assay. Glycolysis was evaluated by the sequential injection of 10 mM glucose, 1 µM oligomycin, and 100 mM 2-deoxy-D-glucose (2-DG), and ECAR was analyzed using specific excitation and emission wavelengths of protons (470/530 nm). To study the mitochondrial function, the sequential injection of 1 μM oligomycin, 250 nM FCCP, 1 μM rotenone, and 1 μM antimycin A was added. The oxygen consumption rate (OCR) measurements were made with the specific excitation and emission wavelengths of the fluorescent probes for oxygen (532/650 nm) using a Seahorse XFe96 Analyzer (Seahorse Agilent, USA), and OCR and ECAR data were normalized by protein content/well, which was determined using a BCA kit. Each experiment was performed at least in triplicate. The OCR/ECAR data analysis and dendrograms were performed using XLSTAT software (version 2023.2.1414, Lumivero, New York, NY, USA).

For data set [4], the system named is Caco-2 cells. The data set can be described thus: Menadione-induced cytosolic (DHE) and mitochondrial (MitoSOX) ROS by flow cytometry. It counts as cell-based, human. To be noted: Caco-2, 100 and 200 µM for 24 h, then 25 µM menadione 1 h. How it is done: Using menadione as an ROS inducer, the preventive effect of compounds 5 and 10 on mitochondrial and cytosolic ROS production was evaluated. No changes in the mitochondrial ROS production were observed (Figure 4I).
The mtROS and ROS levels were measured using MitoSOX® Red Mitochondrial Superoxide (Invitrogen, Carlsbad, CA, USA) and Invitrogen™ Dihydroethidium (Hydroethidine, DHE) probes, respectively. The Caco-2 cells were incubated in 12-well plates at 50,000 cells for 24 h. The cells were treated with compounds 5 and 10 at 100 μM and 200 μM for 24 h. Next, the cells were incubated with 25 μM menadione 25 μM for 1 h, and then the cells were washed with PBS and incubated with MitoSOX Red® (5 µM) or DHE (5 μM) for 30 min. Then, they were recollected, and washed, and the fluorescence was detected by flow cytometry according to Urra et al., 2018 [31].

“Also recorded” adds a separate entry of the source.

Procedure for α-glucosidase: The inhibition of α-glucosidase was determined following a previous method [62] using p-nitrophenyl α-D-glucopyranoside as a substrate. The reaction mixture contained 160 µL of 0.1 M sodium phosphate buffer (pH = 6.9), 5 µL of enzyme (5.46 U/mL), and polyphenolic extract (0.17–1.36 µg/mL). After the pre-incubation of the reaction mixture on ice for 5 min, the enzyme reaction was started by adding 5 µL of 25 mM p-nitrophenyl α-D-glucopyranoside into this mixture. The reaction was incubated for 15 min at 37 °C. Then, 80 µL of 0.2 M sodium carbonate was added. The absorbance was measured at 405 nm in a microplate reader (Biotek ELx808, Agilent, Santa Clara, CA, USA). Enzyme inhibition was calculated using the following equation: % inhibition = (A0 − As)/A0 × 100, where A0 is the absorbance of the control (blank, without extract) and As is the absorbance in presence of the extract. IC50 values denote the µg GAE/mL required to inhibit the enzyme by 50%.

In turn, `CC1=CC(C)(C)c2c(O)c(C)c(C)c(O)c2C1=O` [Compound 5, 5,8-Dihydroxy-2,4,4,6,7-pentamethylnaphthalen-1(4H)-one] returned a melting point of 199.9 to 201.5 °C. The ORAC in data set [1] is 0.37 ± 0.01 mol TE/mol Compound. Besides, the half-maximal inhibitory concentration (IC50) at α-glucosidase (pH 6.9, 37 °C, 15 min, mean ± SD of three experiments, read-out: Inhibition of α-Glucosidase Activity IC50) was found to be 103 µM. Moreover, at α-glucosidase (pIC50 = −log[IC50], Figure 2A), the “pIC50 (α-glucosidase)” value came out at 3.98. Moreover, the “Effect on MTT reduction” value in the data set with Caco-2 cells [2] was “significantly increased the MTT reduction”. Also, in the data set with Caco-2 cells [3] (24 h (Figure 4A-D)), the “Effect on proton leak-driven OCR” value is given as “without affecting”. For the same compound, in the data set with Caco-2 cells [3] (24 h (Figures 3C, 4A-D)), the “Effect on max OCR” value is “reduced effect on max OCR; also recorded: reduces”. Further, the “Effect on basal mitochondrial OCR” value in the data set with Caco-2 cells [3] (24 h, compared to control (Figures 3B, 4A-D)) is recorded as “reduces”. In the data set on Caco-2 cells [3] (24 h, compared to control (Figures 3B, 4E-H)), the “Effect on glycolysis (ECAR)” value is “reduces the glycolysis; also recorded: significantly reduce the glycolysis”. In the data set on Caco-2 cells [3] (24 h, clusters of Figure 3C), the “Effect on glycolysis, cluster in dendrogram” value is listed as “glycolysis inhibitors”. The “Effect on menadione-dependent cytosolic ROS production” value in the data set on Caco-2 cells [4] (DHE) is “significantly prevented”. Further, the “Effect on menadione-induced mitochondrial ROS production” value in the data set on Caco-2 cells [4] (MitoSOX Red) is recorded as “No changes”.

Values taken from paper PMC11313435, “Identification of Antioxidant Methyl Derivatives of Ortho-Carbonyl Hydroquinones That Reduce Caco-2 Cell Energetic Metabolism and Alpha-Glucosidase Activity” (International Journal of Molecular Sciences, 2024).
